Experimental findings from patent US10654852B2, “Antibiotics and methods of using same” (THE BROAD INSTITUTE, INC., priority 2016, dated 2020) are described below.

What all share (type): cell-based
In assay [1] the test system is Escherichia coli CCUG-59353. The assay can be described thus: MIC (50% NHS). The settings on record: CCUG59353; Escherichia coli CCUG-59353, 50% NHS.
Assay [2] has as its system Escherichia coli NCTC-13476. The assay can be described thus: MIC (50% NHS). The settings on record: NCTC13476; Escherichia coli NCTC-13476, 50% NHS.
For assay [3], the system named is Escherichia coli ATCC-25922. The assay can be described thus: MIC in the presence of normal human serum (50% NHS). The settings on record: ATCC25922. From the text:
As used herein, the term “MIC” refers to minimum inhibitory concentrations. Minimum inhibitory concentrations may be determined by broth microdilution according to the Clinical and Laboratory Standards Institute guidelines (see, e.g., […]-A8. Methods for dilution antimicrobial susceptibility tests for bacteria that grow aerobically: approved standard, 8th Ed.; […] One example for measuring minimum inhibitory concentrations may be found in Reck et al., 2012, J. Med. Chem. 55:6916-6933, the disclosure of which is incorporated by reference. Inoculants may be incubated on blood agar plates for 18 to 24 hours. Incubation may occur at a temperature from about 35° C. to about 37° C. […] In serum supplemented experiments, the testing medium (e.g., DMSO solution) and human serum may be mixed. The ratio of testing medium to human serum may be 1:1 (vol:vol). Plates may be read by spectrophotometry at 620 nm. Unless indicated otherwise, all inhibitory concentrations recited in the specification relate to MICs. The MIC tests were based on broth microdilution method in CLSI-M7. […] Solutions of varying concentrations of DMSO were prepared in wells of a v-bottom 96-well plate (Axygen-WIPP02280). A multi-pipette was used to perform serial dilutions as necessary. From well to well, the drug concentrations were 6.4, 3.2, 1.6, 0.8, 0.4, 0.2, 0.1, 0.05, 0.025, 0.0125, 0.00625 and 0 mg/ml in DMSO. For extremely potent antibiotic, the starting concentrations were adjusted accordingly. This was the drug mother plate. Daughter plates were prepared by placing 98 μl of a testing medium into each well of a u-bottom 96-well plate (Costar 3788). An aliquot of each 2 μl solution from each well of the mother plate was then transferred into the corresponding wells of the daughter plate using a multi-pipette work station (CyBi®-SELMA). Testing media were selected based on CLSI-M7, M11 and […]. Cation adjusted Mueller Hinton Broth (CA-MHB-212322) was the testing medium for majority of bacterial species. Brucella medium (BD-211088) supplemented with 5% LHB, 0.5% hemin and 0.1% vitamin K1 (Sigma-95271) was the testing medium for anaerobic bacteria. One day prior to the day of MIC test, bacterial strains were streaked out from -80° C. glycerol stock onto Trypticase Soy Agar (TSA) plates (Brucella blood agar for anaerobic bacteria) and incubated at 37° C. for 20 hours (in anaerobic condition for anaerobic bacteria, e.g., 80% N2, 10% H2 and 10% CO2). Single colonies of bacteria were picked by using an inoculation loop (Greiner-731175) and suspended into 5 ml sterile saline. The turbidity of the suspension was adjusted to 0.10 (Siemens MicroS can turbidity meter), which implies a concentration of colony forming units (“CFU”) of approximately 1.0×10^8 CFU/ml. The bacterial suspension was diluted 100× in testing media. For MIC experiments with NHS, testing medium and human serum (Equitech Bio Inc. BRH-949908) were mixed in the ratio of 1:1. This was used for inoculation of the daughter plates. An aliquot of 100 μl of the bacterial suspension was inoculated into each well of the daughter plates using a multi-pipette. […] The plates were incubated in ambient atmosphere and at 37° C. in an incubator for 20 hours (for anaerobic bacteria in an anaerobic condition as described above for 48 hours). The MIC values were determined and based on the standards of CLSI methods M7-A7, broth microdilution method. […] Test compounds were compared to control antibiotics Penicillin G (Sigma-13752) and levofloxacin (Sigma-28266). […] Additionally, the MIC's of another gyrase inhibitor (“GSK”) with a structure different from the inventive compounds and the antibacterial levofloxin was measured. MIC are given in μg/mL.

Assay [4] deals with Klebsiella pneumonia ATCC-700603. The assay can be described thus: MIC (50% NHS). The settings on record: Klebsiella pneumoniae, ATCC700603; Klebsiella pneumonia ATCC-700603, 50% NHS.
Assay [5] concerns Enterobacter aerogenes ATCC-13048. Kind of assay: MIC (50% NHS). The settings on record: Klebsiella aerogenes, ATCC13048; Enterobacter aerogenes ATCC-13048, 50% NHS.
The test system of assay [6] is Proteus mirabilis ATCC-29906. The assay can be described thus: MIC (50% NHS). The settings on record: ATCC29906; Proteus mirabilis ATCC-29906, 50% NHS.
The mark [7] stands for this setting: Escherichia coli ATC-25922, 50% normal human serum, Table 5, read-out: MIC (50% NHS).
The mark [8] stands for this setting: Escherichia coli ATCC-25922, 50% NHS, Table 6, read-out: MIC.

Each structure is given as a SMILES string. ≈ marks a conversion by molar mass, not a printed value. Like-named read-outs stand apart in the source and are kept apart here.

With `CN1CC2CN(C(=O)Nc3cc(F)cc(F)c3)CC(C1)C2(O)c1ccc(-c2ccc(CN)cc2C#N)cc1` [Compound 23, (1R,5S,9r)-9-(4′-(aminomethyl)-2′-cyano-[1,1′-biphenyl]-4-yl)-N-(3,5-difluorophenyl)-9-hydroxy-7-methyl-3,7-diazabicyclo[3.3.1]nonane-3-carboxamide], the MIC – broadly, the smallest concentration in the dilution series that meets the test's criterion for growth inhibition – in assay [1] is 2 µg/mL (≈ 3.86 µM); in assay [2] it was 2 µg/mL (≈ 3.86 µM); in assay [3] (setting [7]), 0.5 µg/mL; in assay [3] (setting [8]) it was 0.5 µg/mL; in assay [4] it was 8 µg/mL (≈ 15.5 µM); in assay [5] it was 1 µg/mL (≈ 1.93 µM). In assay [6], the minimum inhibitory concentration (MIC) amounted to 4 µg/mL (≈ 7.73 µM).

With `CNCc1ccc(-c2ccc(C3(O)C4CN(C)CC3CN(C(=O)Nc3cc(F)cc(F)c3)C4)nc2)c(C#N)c1` [Compound 17, (1R,5S,9r)-9-(5-(2-cyano-4-((methylamino)methyl)phenyl)pyridin-2-yl)-N-(3,5-difluorophenyl)-9-hydroxy-7-methyl-3,7-diazabicyclo[3.3.1]nonane-3-carboxamide], the MIC is 1.78 µg/mL (≈ 3.34 µM) in assay [1]; 1.78 µg/mL (≈ 3.34 µM) in assay [2]; 0.5 µg/mL in assay [3] (setting [7]); 0.22 µg/mL in assay [3] (setting [8]); 7.12 µg/mL (≈ 13.4 µM) in assay [4]; 0.45 µg/mL (≈ 0.845 µM) in assay [5]. This molecule also registered an MIC in assay [6] of 7.12 µg/mL (≈ 13.4 µM).

In the case of `CN1CC2CN(C(=O)Nc3cc(F)cc(F)c3)CC(C1)C2(O)c1ccc(-c2ccc(CN)cc2C#N)cn1` [Compound 24, (1R,5S,9r)-9-(5-(4-(aminomethyl)-2-cyanophenyl)pyridin-2-yl)-N-(3,5-difluorophenyl)-9-hydroxy-7-methyl-3,7-diazabicyclo[3.3.1]nonane-3-carboxamide], the MIC in assay [1] is 4 µg/mL (≈ 7.71 µM); in assay [2], 4 µg/mL (≈ 7.71 µM); in assay [3] (setting [7]), 0.25 µg/mL; in assay [3] (setting [8]), 1 µg/mL; in assay [4], 16 µg/mL (≈ 30.9 µM); in assay [5] it was 2 µg/mL (≈ 3.86 µM). The molecule also had an MIC in assay [6] of 32 µg/mL (≈ 61.7 µM).
